Reference: patent US20200164065A1, “TRITERPENE SAPONIN ANALOGUES” (ADJUVANCE TECHNOLOGIES, INC., priority 2017, published 2020)
Read-outs that look alike come from different tables or passages of the source.

Experiments:
[1] = mouse, in vivo
[2] = test system: hemolysis; assay: Hemolytic assay; format: cell-based
Method: (§1) Natural and synthetic QS-21 (SQS-21 or SAPONEX®) and a variety of analogs were tested for hemolytic activity.

[3] = Stability at 37° C.; format: physicochemical; conditions: after two weeks at 37° C.
Method: as §1

[4] = Pharm/tox study with Adacel, QS-21 and TiterQuil-1055: body weight
From the text: A 0.5 mcg dose of Adacel was selected for a pharmacology/toxicology (pharm/tox) study.
Mice were vaccinated SC on days 1 and 15, weighed daily, and bled and sacrificed on day 22, except for group 7 which was sacrificed on day 29.

[5] = test system: liver; assay: Pilot pharm/tox study: histopathology of 33 tissues
[6] = test system: HA from H3N2 virus; assay: Anti-HA total IgG ELISA after immunization with HA protein; format: in vivo, female BL/6 mice; conditions: 50 μg Compound I-4 with 9 or 3 μg/ml HA protein vs 9 μg/ml HA alone, day 21 serum
[7] = cited from earlier work
[8] = Companion toxicity study: body mass three days after immunization; conditions: 20 mcg

Compound	body mass gained on average [1]	weight loss (30 mcg dose with Engerix-B)	weight loss (100 mcg dose with Engerix-B)	weight loss (300 mcg dose with Engerix-B)	hemolytic activity [2]	degraded [3]	weight loss ([4]; mice receiving 50 mcg)	liver histopathology (hepatocellular cytoplasmic vacuolization) ([5]; SC days 1 and 15, sacrificed day 22, 50 mcg TiterQuil-1055, 20 mcg QS-21, Adacel 2.5 mcg pertussis toxin)	anti-HA total IgG endpoint titer and dose sparing of HA [6]	tolerated / maximum dose in cancer patients ([7]; cancer patients, above it local and systemic side effects)	maximum dose for healthy patients ([7]; healthy patients)	highest practical tolerable dose ([7]; well (non-cancer) adult and child recipients)	body weight lost ([4]; mice injected with 20 mcg)	liver histopathology (hepatocellular cytoplasmic vacuolization) ([5]; mouse, in vivo, sc)	body mass lost on average [8]
CC1O[C@@H](OC2C(O)[C@@H](NC(=O)CCCCCCCCCCC(=O)O)C(CO)O[C@H]2OC(=O)[C@]23CCC(C)(C)CC2C2=CCC4C5(C)CC[C@H](O)C(C)(C=O)C5CCC4(C)C2(C)CC3O)C(O)C(O)[C@H]1O[C@@H]1OC[C@@H](O)C(O)C1O (some centres unmarked) [Compound I-4]	5%	No weight loss	4%	5%	much lower or undetectable hemolytic activity	without detectable degradation	No weight loss	No changes at all	enhances anti-HA total IgG and provides a dose sparing effect on HA concentration						
QS-21 [reference compound]					highly hemolytically active	20%				100 to 150 µg	~50 µg	25 to 50 µg	8-9%	Mild vacuolar changes	8-10%
